Consider 26 compounds from patent publication US11702404B2, “GLP-1R modulating compounds” (priority 2019, dated 2023).

For one data set, the target named is GLP-1R (Homo sapiens, UniProt P43220). The data set can be described thus: GLP-1R activation: cAMP increase in CHO cells stably expressing GLP-1R. Format: cell-based.
The nature of data set [1]: Microsomal stability, human liver microsomes (predicted hepatic clearance). Conditions: predicted from in vitro microsomal stability data.
[2] abbreviates: cAMP increase, CHO cells stably expressing GLP-1R, 10 point dose response, 30 minutes incubation, read-out: EC50.

Read-outs that look alike come from different tables or passages of the source.

GLP-1R, sequence (P43220 24-463): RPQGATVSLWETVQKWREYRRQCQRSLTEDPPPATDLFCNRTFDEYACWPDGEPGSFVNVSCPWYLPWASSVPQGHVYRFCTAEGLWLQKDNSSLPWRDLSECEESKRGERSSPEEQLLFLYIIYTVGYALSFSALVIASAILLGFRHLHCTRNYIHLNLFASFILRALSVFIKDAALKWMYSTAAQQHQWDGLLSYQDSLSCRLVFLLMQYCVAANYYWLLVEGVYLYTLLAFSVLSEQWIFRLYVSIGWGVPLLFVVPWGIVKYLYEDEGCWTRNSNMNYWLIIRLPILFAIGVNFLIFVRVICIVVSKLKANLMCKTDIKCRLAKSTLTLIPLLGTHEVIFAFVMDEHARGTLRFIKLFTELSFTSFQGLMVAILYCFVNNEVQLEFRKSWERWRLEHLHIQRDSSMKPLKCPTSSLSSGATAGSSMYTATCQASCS

Turning to `N#Cc1ccc(COc2cccc(-c3ccc(Cc4nc5ccc(C(=O)O)cc5n4CC4CCS4(=O)=O)c(F)c3)n2)c(F)c1` (single isomer, unassigned) [Example 70, 2-(4-(6-((4-cyano-2-fluorobenzyl)oxy)pyridin-2-yl)-2-fluorobenzyl)-1-((1,1-dioxidothietan-2-yl)methyl)-1H-benzo[d]imidazole-6-carboxylic acid], the EC50 on GLP-1R (setting [2]) turned out to be 64 nM. In data set [1], the “Predicted Hepatic Clearance (Pred. Cl.)” value is 2.17 mL/min/kg.
Take `CC(=O)NCCn1c(Cc2ccc(-c3cccc(OCc4ccc(C#N)cc4F)n3)cc2F)nc2ccc(C(=O)O)cc21` [Example 485, 1-(2-acetamidoethyl)-2-(4-(6-((4-cyano-2-fluorobenzyl)oxy)pyridin-2-yl)-2-fluorobenzyl)-1H-benzo[d]imidazole-6-carboxylic acid]: the EC50 on GLP-1R (read-out: EC50) came out at 103 nM. In addition, the “Predicted Hepatic Clearance (Pred. Cl.)” value in data set [1] was 3.67 mL/min/kg.
`N#Cc1ccc(COc2cccc(-c3ccc(Cc4nc5cc(F)c(C(=O)O)cc5n4C[C@@H]4CCO4)c(F)c3)n2)c(F)c1` [Example 206]: on GLP-1R (setting [2]), the 50% effective concentration (EC50) was found to be 0.86 nM. Also, the “Predicted Hepatic Clearance (Pred. Cl.)” value in data set [1] was 3.5 mL/min/kg.
On the same counts, the results for `COCCn1c(Cc2cc(F)c(-c3cccc(OCc4ccc(C(N)=O)cc4F)n3)cc2F)nc2ccc(C(=O)O)cc21` [Example 554, 2-(4-(6-((4-carbamoyl-2-fluorobenzyl)oxy)pyridin-2-yl)-2,5-difluorobenzyl)-1-(2-methoxyethyl)-1H-benzo[d]imidazole-6-carboxylic acid] are 48.2 nM and 4.17 mL/min/kg.
For `COCCn1c(Cc2c(F)cc(-c3cccc(OCc4ccc(C(F)F)cc4F)n3)c(F)c2F)nc2ccc(C(=O)O)cc21` [Example 750], in that order: 1.26 nM and 4.17 mL/min/kg.
Turning to `COCCn1c(Cc2cc(F)c(-c3cccc(OCc4ccc(C#N)cc4F)n3)cc2F)nc2c(F)cc(C(=O)O)cc21` [Example 301, 2-(4-(6-((4-cyano-2-fluorobenzyl)oxy)pyridin-2-yl)-2,5-difluorobenzyl)-4-fluoro-1-(2-methoxyethyl)-1H-benzo[d]imidazole-6-carboxylic acid], at GLP-1R (EC50 (nM)), a half-maximal effect (EC50) was put at 0.73 nM. Further, the “Predicted Hepatic Clearance (Pred. Cl.)” value in data set [1] was 5.05 mL/min/kg.
Take `COCCn1c(Cc2cc(F)c(-c3cccc(OCc4ccc(C#N)cn4)n3)cc2F)nc2ccc(C(=O)O)cc21` [Example 870]: on GLP-1R (setting [2]), the EC50 is 17.6 nM. Moreover, the “Predicted Hepatic Clearance (Pred. Cl.)” value in data set [1] was 1.83 mL/min/kg.
On to `N#Cc1ccc(COc2cccc(-c3ccc(Cc4nc5ccc(C(=O)O)cc5n4CC4(n5ccnn5)CC4)cc3F)n2)c(F)c1` [Example 457, 1-((1-(1H-1,2,3-triazol-1-yl)cyclopropyl)methyl)-2-(4-(6-((4-cyano-2-fluorobenzyl)oxy)pyridin-2-yl)-3-fluorobenzyl)-1H-benzo[d]imidazole-6-carboxylic acid], for which, at GLP-1R (setting [2]), the EC50 was 1.4 nM. Moreover, the “Predicted Hepatic Clearance (Pred. Cl.)” value in data set [1] was 7.83 mL/min/kg.
On the same counts, the results for `COCCn1c(Cc2ccc(-c3cccc(OCc4cccc5c4OCO5)n3)cc2F)nc2ccc(C(=O)O)cc21` [Example 362, 2-(4-(6-(benzo[d][1,3]dioxol-4-ylmethoxy)pyridin-2-yl)-2-fluorobenzyl)-1-(2-methoxyethyl)-1H-benzo[d]imidazole-6-carboxylic acid] are 21.8 nM and 16.2 mL/min/kg.
In the case of `COCCn1c(Cc2ccc(-c3cccc(OCc4ccc(C#N)cc4F)n3)cc2-c2cnn(C(F)F)c2)nc2ccc(C(=O)O)cc21` [Example 190, 2-(4-(6-((4-cyano-2-fluorobenzyl)oxy)pyridin-2-yl)-2-(1-(difluoromethyl)-1H-pyrazol-4-yl)benzyl)-1-(2-methoxyethyl)-1H-benzo[d]imidazole-6-carboxylic acid], at GLP-1R (setting [2]), the EC50 was 252 nM. The “Predicted Hepatic Clearance (Pred. Cl.)” value in data set [1] was 6.83 mL/min/kg.
Regarding `N#Cc1ccc(COc2nccc(-c3ccc(Cc4nc5ccc(C(=O)O)cc5n4CC45CC(CO4)C5)cc3F)n2)c(F)c1` [Example 626], the EC50 on GLP-1R (setting [2]) was 23.9 nM. In addition, the “Predicted Hepatic Clearance (Pred. Cl.)” value in data set [1] was 7.83 mL/min/kg.
`COCCn1c(Cc2ccc(-c3cccc(OCc4ccc(C#N)cc4F)n3)cc2F)nc2ccc(C(=O)O)c(Cl)c21` [Example 366, 7-chloro-2-(4-(6-((4-cyano-2-fluorobenzyl)oxy)pyridin-2-yl)-2-fluorobenzyl)-1-(2-methoxyethyl)-1H-benzo[d]imidazole-6-carboxylic acid]: the EC50 at GLP-1R (setting [2]) is 20.8 nM. The “Predicted Hepatic Clearance (Pred. Cl.)” value in data set [1] was 5.5 mL/min/kg.
On the same counts, the results for `COCCn1c(Cc2ccc(-c3cccc(OCc4ccc(C#N)cc4F)n3)cc2-c2cccc(OC)c2)nc2ccc(C(=O)O)cc21` [Example 188, 2-((5-(6-((4-cyano-2-fluorobenzyl)oxy)pyridin-2-yl)-3′-methoxy-[1,1′-biphenyl]-2-yl)methyl)-1-(2-methoxyethyl)-1H-benzo[d]imidazole-6-carboxylic acid] are 36.9 nM and 17.5 mL/min/kg.
On the same counts, the results for `COCCn1c(Cc2ccc(-c3nc(OCc4ccc(C#N)cc4F)ccc3C)cc2)nc2ccc(C(=O)O)cc21` (single isomer, unassigned) [Example 23, 2-(4-(6-((4-cyano-2-fluorobenzyl)oxy)-3-methylpyridin-2-yl)benzyl)-1-(2-methoxyethyl)-1H-benzo[d]imidazole-6-carboxylic acid] are 1100 nM and 13.8 mL/min/kg.
For `COCCn1c(Cc2ccc(-c3cccc(OCc4ccc(C#N)cc4F)n3)c(F)c2F)nc2ccc(C(=O)O)cc21` [Example 45, 2-(4-(6-((4-cyano-2-fluorobenzyl)oxy)pyridin-2-yl)-2,3-difluorobenzyl)-1-(2-methoxyethyl)-1H-benzo[d]imidazole-6-carboxylic acid], in that order: 36 nM and 3.83 mL/min/kg.
Consider `N#CCC1(Cn2c(Cc3ccc(-c4cccc(OCc5ccc(C#N)cc5F)n4)cc3F)nc3c(F)cc(C(=O)O)cc32)CC1` [Example 296, 2-(4-(6-((4-cyano-2-fluorobenzyl)oxy)pyridin-2-yl)-2-fluorobenzyl)-1-((1-(cyanomethyl)cyclopropyl)methyl)-4-fluoro-1H-benzo[d]imidazole-6-carboxylic acid], for which, at GLP-1R (setting [2]), the 50% effective concentration (EC50) was found to be 0.08 nM. The “Predicted Hepatic Clearance (Pred. Cl.)” value in data set [1] is 5.33 mL/min/kg.
On to `CCn1cncc1Cn1c(Cc2ccc(-c3cccc(OCc4ccc(C#N)cc4F)n3)c(F)c2)nc2c(F)cc(C(=O)O)cc21` [Example 452, 2-(4-(6-((4-cyano-2-fluorobenzyl)oxy)pyridin-2-yl)-3-fluorobenzyl)-1-((1-ethyl-1H-imidazol-5-yl)methyl)-4-fluoro-1H-benzo[d]imidazole-6-carboxylic acid], for which, on GLP-1R (setting [2]), the EC50 is 0.16 nM. The “Predicted Hepatic Clearance (Pred. Cl.)” value in data set [1] was 7.17 mL/min/kg.
Take `N#Cc1ccc(COc2cccc(-c3cc(F)c(Cc4nc5ccc(C(=O)O)cc5n4CCOC(F)F)cc3F)n2)c(F)c1` [Example 325, 2-(4-(6-((4-cyano-2-fluorobenzyl)oxy)pyridin-2-yl)-2,5-difluorobenzyl)-1-(2-(difluoromethoxy)ethyl)-1H-benzo[d]imidazole-6-carboxylic acid]: the concentration for a half-maximal effect (EC50) at GLP-1R (setting [2]) turned out to be 1.61 nM. For the same compound, the “Predicted Hepatic Clearance (Pred. Cl.)” value in data set [1] was 5.67 mL/min/kg.
On the same counts, the results for `COCCn1c(Cc2cc(F)c(-c3cccc(OCc4cccnc4OC(F)F)n3)cc2F)nc2ccc(C(=O)O)cc21` [Example 542, 2-(4-(6-((2-(difluoromethoxy)pyridin-3-yl)methoxy)pyridin-2-yl)-2,5-difluorobenzyl)-1-(2-methoxyethyl)-1H-benzo[d]imidazole-6-carboxylic acid] are 8.6 nM and 20 mL/min/kg.
For `N#Cc1ccc(COc2cccc(-c3cc(F)c(Cc4nc5ccc(C(=O)O)cc5n4Cc4ccccn4)cc3F)n2)c(F)c1` [Example 311, 2-(4-(6-((4-cyano-2-fluorobenzyl)oxy)pyridin-2-yl)-2,5-difluorobenzyl)-1-(pyridin-2-ylmethyl)-1H-benzo[d]imidazole-6-carboxylic acid], in that order: 95.6 nM and 7 mL/min/kg.
In the case of `N#Cc1ccc(COc2nccc(-c3cc(F)c(Cc4nc5ccc(C(=O)O)cc5n4CCOC4CC4)cc3F)n2)c(F)c1` [Example 897], the EC50 on GLP-1R (setting [2]) was found to be 4.1 nM. Further, the “Predicted Hepatic Clearance (Pred. Cl.)” value in data set [1] is 2.17 mL/min/kg.
For `COCCn1c(Cc2ccc(-c3ccnc(OCc4ccc(C#N)cc4OC)n3)cc2F)nc2ccc(C(=O)O)cc21` [Example 112, 2-(4-(2-((4-cyano-2-methoxybenzyl)oxy)pyrimidin-4-yl)-2-fluorobenzyl)-1-(2-methoxyethyl)-1H-benzo[d]imidazole-6-carboxylic acid], in that order: 3.76 nM and 9.17 mL/min/kg.
Regarding `N#Cc1ccc(COc2nccc(-c3cc(F)c(Cc4nc5ccc(C(=O)O)cc5n4CC45CC(CO4)C5)cc3F)n2)c(F)c1` [Example 645], the EC50 on GLP-1R (setting [2]) is 2.05 nM. Also, the “Predicted Hepatic Clearance (Pred. Cl.)” value in data set [1] was 9.17 mL/min/kg.
On the same counts, the results for `COCCn1c(Cc2ccc(-c3cccc(OCc4ccccc4SC(F)(F)F)n3)cc2F)nc2ccc(C(=O)O)cc21` [Example 248, 2-(2-fluoro-4-(6-((2-((trifluoromethyl)thio)benzyl)oxy)pyridin-2-yl)benzyl)-1-(2-methoxyethyl)-1H-benzo[d]imidazole-6-carboxylic acid] are 3560 nM and 17.8 mL/min/kg.
In the case of `O=C(O)c1ccc2nc(Cc3c(F)cc(-c4cccc(OCc5ccc(C(F)F)cc5F)n4)c(F)c3F)n(Cc3ncco3)c2c1` [Example 749], the 50% effective concentration (EC50) on GLP-1R (setting [2]) came out at 0.33 nM. Moreover, in data set [1], the “Predicted Hepatic Clearance (Pred. Cl.)” value is 4.33 mL/min/kg.
Turning to `COCCn1c(Cc2ccc(-c3cccc(OCc4cccc(OCC(F)F)c4)n3)cc2F)nc2ccc(C(=O)O)cc21` [Example 139, 2-(4-(6-((3-(2,2-difluoroethoxy)benzyl)oxy)pyridin-2-yl)-2-fluorobenzyl)-1-(2-methoxyethyl)-1H-benzo[d]imidazole-6-carboxylic acid], the EC50 on GLP-1R (setting [2]) turned out to be 26.4 nM. For the same compound, in data set [1], the “Predicted Hepatic Clearance (Pred. Cl.)” value was 7.17 mL/min/kg.

As a reminder, the EC50 is the concentration giving half of the maximal effect.
